Results published in patent US20090197916A1, “SOLUBLE EPOXIDE HYDROLASE INHIBITORS FOR TREATMENT OF METABOLIC SYNDROME AND RELATED DISORDERS” (Arete Therapeutics, Inc, priority 2007, published 2009).

Columns and labels:
sEH = biological target: T1, sEH (Homo sapiens, UniProt P34913); test: sEH inhibition, fluorescent assay with CMNPC substrate (percent inhibition and IC50); assay type: biochemical; settings: for IC50: procedure similar to the percent inhibition procedure
T1 sequence (P34913 1-555): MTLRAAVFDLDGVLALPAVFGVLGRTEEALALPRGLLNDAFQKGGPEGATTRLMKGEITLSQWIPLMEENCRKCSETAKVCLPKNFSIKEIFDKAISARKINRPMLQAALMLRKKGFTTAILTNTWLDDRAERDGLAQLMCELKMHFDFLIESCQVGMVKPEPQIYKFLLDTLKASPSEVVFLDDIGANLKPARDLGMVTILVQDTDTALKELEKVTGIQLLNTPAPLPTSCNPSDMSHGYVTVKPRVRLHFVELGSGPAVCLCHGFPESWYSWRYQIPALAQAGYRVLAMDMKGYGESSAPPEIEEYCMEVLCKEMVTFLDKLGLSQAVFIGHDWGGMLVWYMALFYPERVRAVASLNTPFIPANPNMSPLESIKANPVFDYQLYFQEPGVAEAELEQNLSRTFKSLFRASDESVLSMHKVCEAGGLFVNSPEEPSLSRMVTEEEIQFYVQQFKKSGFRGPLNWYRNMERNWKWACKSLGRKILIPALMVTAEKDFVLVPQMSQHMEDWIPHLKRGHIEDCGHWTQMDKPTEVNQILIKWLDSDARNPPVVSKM
Protocol: The substrate for the reaction was:
Therefore, well A2 would refer to a well in the first row and second column of the plate.
In a black 96 well plate, all the wells are filled with 150 μL of buffer A (Buffer A: Bis/Tris HCl, 25 mM, pH 7.0 plus 0.1 mg/mL BSA). DMSO (2 microliters) was added in well A2 and A3, and then was added 2 μL of inhibitor solution in A1 and A4 through A12. […] The plate was incubated for 5 minutes in the plate reader at 30° C. During incubation, the working solution of substrate was prepared by mixing 3.68 mL of buffer A with 266 μL of 0.5 mM substrate solution. At t=0, 30 μL of working substrate solution was added and readings were started ([S]final: 5 μM).

[1] = test system: Zucker diabetic fatty rats (ZDF); test: Model 4: Zucker diabetic fatty rats; assay type: in vivo; settings: daily dose of 100 mg/kg for four weeks, vs vehicle
Protocol: All protocols were approved by the institutional animal care and use committee at Arête Therapeutics. Eight weeks old male Zucker diabetic fatty rats (ZDF) (Charles River Laboratory, Hollister, Calif.) with a 270 g body weight on average used in this study were fed a normal chow. Baseline blood pressure and body weight were measured before surgery. Animals were anesthetized by inhalation of 2% isoflurane. The animals were randomly divided into 2 groups; […] Four animals were assigned to the vehicle group and three to the Compound 2 group. After 4 weeks of treatment, systolic blood pressure was measured in conscious mice using a tail-cuff system (Kent Scientific Corporation, Torrington, Conn.), and the animals were euthanized. Blood samples were collected via cardiac puncture for the measurement of a serum cholesterol profile (IDEXX Veterinary Services, West Sacramento, Calif.) and tissues were removed for analysis. All results are presented as the mean and standard error (SEM). Comparison between the vehicle and Compound 2 treatment groups was performed using Student's t test.

[2] = test system: wild-type mice on high-fat, high-fructose diet (HF) or standard chow (NC); test: Metabolic Syndrome Model 2: diet induced obesity mouse model; assay type: in vivo; settings: for weight gain, HF-fed animals / total plasma cholesterol / glucose tolerance (GTT) / statistical significance of attenuated weight gain: HF diet; for weight gain, HF-fed animals: 60 mg/kg twice daily (Losartan 10 mg/kg/day in drinking water); for weight gain, HF-fed animals / total plasma cholesterol / glucose tolerance (GTT): vs vehicle; for total plasma cholesterol: 60 mg/kg twice daily, 4 weeks; for glucose tolerance (GTT): after 4 weeks of dosing 60 mg/kg twice daily; for statistical significance of attenuated weight gain: from second week of dose administration
From the text: Seven groups of 10 wild-type mice were entered onto the study. Five groups were placed on an ad libitum high-fat, high-fructose diet (HF); two groups were fed ad libitum with standard rodent chow and water (NC). Animals were maintained on the respective diet for the entire 12 weeks of the study. […] Losartan (Cozaar®) is a compound approved by the FDA for the treatment of hypertension, reducing the risk of stroke in a patient with hypertension and left ventricular hypertrophy, and treatment of diabetic nephropathy with an elevated serum […] and proteinuria in patients with type 2 diabetes and a history of hypertension.
Glucose tolerance tests (GTTs) were performed in Week 7 (prior to the start of dosing) and Week 12 (after 4 weeks of dosing). Body weights were recorded semi-weekly throughout the study whereas chow consumption and liquid intake were recorded weekly. Plasma was collected from untreated (Week 7, prior to the start of dosing) and treated (at the end of in-life) animals and submitted for the determination of plasma cholesterol. At the end of the in-life period, animals were sacrificed after terminal bleeds and discarded; no necropsies were performed.

[3] = test system: male C57Bl/6 mice on high-fat, high-fructose diet; test: Metabolic Syndrome Model 1: diet induced obesity mouse model; assay type: in vivo
Protocol: A diet induced obesity mouse model was used to evaluate the efficacy of the sEH inhibitor 1-[1-(methylsulfonyl)piperidin-4-yl]-3-(adamant-1-yl)urea (Compound 5) for the treatment of metabolic syndrome and the adverse conditions related thereto.
The study was performed using 7-8 week old male C57Bl/6 mice. The mice were acclimated a minimum of five days prior to the start of study and were housed five per cage in microisolators in a 12:12 light/dark cycle (all work was done in a BioBubble Hood™). Water and food was provided ad libitum.
The mice were provided a high-fat, high-fructose diet for a total of 11 weeks, within the first 5 weeks the animals became obese, insulin resistant, have increased plasma cholesterol and mildly hypertensive. The mice were separated into three groups, each group consisting of 10 mice after the first 5 weeks on the high-fat, high-fructose diet. The mice continued to receive the high-fat, high-fructose diet but also began to receive treatment for the remaining 6 weeks of the study for a total of 11 weeks of study. During the treatment phase, Group 1 was administered vehicle alone, perorally, twice a day for six weeks (control group); group 2 was administered 20 mg/kg of Compound 5, perorally, twice a day for six weeks; group 3 was administered 60 mg/kg Compound 5, perorally, twice a day for six weeks. At intervals of 3 and 5.5 weeks after the beginning of the treatment phase of the study, glucose tolerance tests were administered. At the beginning of the treatment phase and after 5 weeks of dosing, samples were collected for plasma cholesterol measurements. Blood pressure was measured 3 weeks after the start of the treatment phase of the study.
HF diet with 45% fat by calorie (Research Diets, D12451)
High-Fructose (degassed 7up)
Group 2) High-Fat Diet+Compound 5-20 mg/kg p.o. (perorally) b.i.d. (twice a day)
Group 3) High-Fat Diet+Compound 5-60 mg/kg p.o. (perorally) b.i.d. (twice a day)
Throughout duration of the study body weight, food, and fructose consumption was measured twice a week. Blood pressure and heart rate was measured one week.
Mice were randomized on the basis of average Body Weight in each of the three groups (n=10/gp).
GTT—Animals were fasted for 4 hours followed by a glucose load (2 g/kG body wt). The tip (3 mm) of the tail was excised and blood samples were taken for glucose clearance measurements (Glucometer) at T=0, 15, 30, 60, 90, and 120 minutes. This test determines if the animal is has glucose intolerance.
Plasma was analyzed using a lipid and chem panel analysis (Lipid-total cholesterol, HDL, LDL and Triglycerides, FFA).
p.o. (perorally) dosing of Compound 5 at 20 mg/kg and at 60 mg/kg begins b.i.d. twice a day) for […]
Measure blood pressure using a non-invasive CODA 6 occlusion cuff system

O=C(Nc1ccc(C(F)(F)F)cc1)Nc1cccc(C(=O)N2CCOCC2)c1 [Compound 1, 1-[3-(morpholino-4-carbonyl)phenyl]-3-(4-trifluoromethylphenyl) urea]
% Inhibition (sEH; Concentration 50 nM): 82%

CC(=O)N1CCC(NC(=O)NC23CC4CC(CC(C4)C2)C3)CC1 [Compound 2, 1-[1-(acetyl)piperidin-4-yl]-3-(adamant-1-yl) urea]
HDL level [1]: decreased
LDL [1]: significantly decreased
blood glycated hemoglobin (HbA1c %) [1]: significantly decreased
fasting plasma glucose level [1]: significantly decreased
total cholesterol [1]: significantly decreased
triglycerides (TGs) [1]: significantly decreased

CC(=O)N1CCC(NC(=O)Nc2ccc(C(F)(F)F)cc2)CC1 [Compound 3, 1-[1-(acetyl)piperidin-4-yl]-3-(4-trifluoromethylphenyl) urea]
weight gain, HF-fed animals [2]: gained less weight
total plasma cholesterol [2]: slight elevation of total cholesterol
glucose tolerance (GTT) [2]: statistically significant improvements in glucose tolerance
statistical significance of attenuated weight gain [2]: statistically significant

CS(=O)(=O)N1CCC(NC(=O)Nc2ccc(C(F)(F)F)cc2)CC1 [Compound 4, 1-[1-(methylsulfonyl)piperidin-4-yl]-3-(4-trifluoromethylphenyl) urea]
weight gain, HF-fed animals [2]: gained less weight
total plasma cholesterol [2]: decreases in total plasma cholesterol level, although not statistically significant
glucose tolerance (GTT) [2]: statistically significant improvements in glucose tolerance

CS(=O)(=O)N1CCC(NC(=O)NC23CC4CC(CC(C4)C2)C3)CC1 [Compound 5, 1-[1-(methylsulfonyl)piperidin-4-yl]-3-(adamant-1-yl) urea]
cholesterol level ([3]; 60 mg/kg twice a day, vs vehicle, p<0.01): statistically lower cholesterol level
blood pressure ([3]; 60 mg/kg twice a day, vs vehicle, p<0.05): statistically significantly lower blood pressure
heart rate ([3]; 20 and 60 mg/kg b.i.d.): did not significantly alter heart rate
systolic and diastolic blood pressure ([3]; 20 and 60 mg/kg b.i.d., 3 weeks of treatment, vs control): reduced
serum glucose in GTT ([3]; 20 and 60 mg/kg p.o. b.i.d., relative to control group): decrease in serum glucose
area under the curve for plasma glucose after interperitonial glucose ([3]; both 20 and 60 mg/kg twice a day, vs vehicle and start of treatment, p<0.01): statistically lower area under the curve
body weight ([3]; either dose (20 or 60 mg/kg p.o. b.i.d.), vs vehicle): stabilization in body weight
plasma cholesterol levels ([3]; relative to control group, 5 weeks of dosing): reduced
mean blood pressure ([3]; vs control group): similarly reduced
weight gain, HF-fed animals [2]: gained less weight
total plasma cholesterol [2]: statistically significant decreases in cholesterol
glucose tolerance (GTT) [2]: statistically significant improvements in glucose tolerance
statistical significance of attenuated weight gain [2]: statistically significant
body weights, animals on NC ([2]; NC diet, Compound 5 60 mg/kg twice daily vs vehicle): similar

CC(C)(C)CC(=O)N1CCC(NC(=O)Nc2ccc(C(F)(F)F)cc2)CC1 [Compound 7, 1-(1-(3,3-dimethylbutanoyl)piperidin-4-yl)-3-(4-(trifluoromethyl)phenyl)urea]
IC50 (sEH): 0.8 nM

CC(=O)N1CCC(NC(=O)Nc2cccc(C(F)(F)F)c2)CC1 [Compound 9, 1-(1-Acetyl-piperidin-4-yl)-3-(3-trifluoromethyl-phenyl)-urea]
IC50 (sEH): 10.1 nM

CC(C)OC(=O)N1CCC(NC(=O)Nc2ccc(C(F)(F)F)cc2)CC1 [Compound 11, isopropyl 4-(3-(4-(trifluoro-methyl)phenyl)ureido)-piperidine-1-carboxylate]
IC50 (sEH): 0.8 nM

O=C(NC1CCCCC1)NC1CCN(C(=O)c2ccccn2)CC1 [Compound 12, 1-cyclohexyl-3-(1-picolinoylpiperidin-4-yl)urea]
IC50 (sEH): 5.3 nM

CC(C)S(=O)(=O)N1CCC(NC(=O)Nc2ccc(OC(F)(F)F)cc2)CC1 [Compound 13, 1-(1-(isopropylsulfonyl)piperidin-4-yl)-3-(4-(trifluoromethoxy)phenyl)urea]
IC50 (sEH): 1.6 nM

O=C(Nc1ccc(C(F)(F)F)cc1)NC1CCN(c2ccc(C(F)(F)F)cn2)CC1 [Compound 14, 1-(4-(trifluoromethyl)-phenyl)-3-(1-(5-(trifluoromethyl)-pyridin-2-yl)piperidin-4-yl)urea]
IC50 (sEH): 7.5 nM

CC(C)OC(=O)N1CCC(NC(=O)Nc2ccc(OC(F)(F)F)cc2)CC1 [Compound 15, isopropyl 4-(3-(4-(trifluoromethoxy)phenyl)ureido)piperidine-1-carboxylate]
IC50 (sEH): 2.1 nM

O=C(Nc1ccc(C(F)(F)F)cc1)Nc1ccc(Oc2ccccc2)nc1 [Compound 16, 1-(6-phenoxypyridin-3-yl)-3-(4-(trifluoromethyl)phenyl)urea]
IC50 (sEH): 7.1 nM

CC(=O)NC1CCC(NC(=O)Nc2ccc(C(F)(F)F)cc2)CC1 (stereo not drawn) [Compound 17, N-(4-(3-(4-(trifluoromethyl)phenyl)ureido)cyclohexyl)acetamide]
IC50 (sEH): 6.2 nM

O=C(Nc1ccc(C(F)(F)F)cc1)Nc1ccc(S(=O)(=O)c2ccccc2)cc1 [Compound 18, 1-(4-benzenesulfonyl-phenyl)-3-(4-trifluoromethyl-phenyl)-urea]
IC50 (sEH): 3.8 nM

CCCCc1nc(Cl)c(CO)n1Cc1ccc(-c2ccccc2-c2nn[nH]n2)cc1 [Losartan, reference compound]
weight gain, HF-fed animals [2]: gained less weight
